Assay results published in ChEMBL document CHEMBL1149361, “Synthesis, biochemical evaluation and rationalisation of the inhibitory activity of a range of 4-substituted phenyl alkyl imidazole-based inhibitors of the enzyme complex 17alpha-hydroxylase/17,20-lyase (P450(17alpha))” (Bioorg Med Chem Lett, 2006).

Tests used:
[1] = target: T1, Steroid 17-alpha-hydroxylase/17,20 lyase (Rattus norvegicus, UniProt P11715); assay: Inhibition of rat testis 17-alpha-hydroxylase component of P450-17alpha at 10 uM
T1 sequence (P11715 whole entry): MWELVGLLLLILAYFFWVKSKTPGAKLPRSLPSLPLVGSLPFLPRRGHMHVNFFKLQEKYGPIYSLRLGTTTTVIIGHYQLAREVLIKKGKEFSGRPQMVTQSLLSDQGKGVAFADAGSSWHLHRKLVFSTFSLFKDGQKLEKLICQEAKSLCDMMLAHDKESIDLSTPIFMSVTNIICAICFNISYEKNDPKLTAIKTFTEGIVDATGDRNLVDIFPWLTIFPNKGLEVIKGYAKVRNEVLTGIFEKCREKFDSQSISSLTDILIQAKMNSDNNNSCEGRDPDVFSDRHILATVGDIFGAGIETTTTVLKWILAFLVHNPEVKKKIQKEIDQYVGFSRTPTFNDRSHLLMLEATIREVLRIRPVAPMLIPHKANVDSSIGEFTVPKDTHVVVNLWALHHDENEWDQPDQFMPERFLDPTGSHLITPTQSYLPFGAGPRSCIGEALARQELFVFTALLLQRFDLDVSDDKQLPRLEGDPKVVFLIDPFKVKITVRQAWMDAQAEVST

[2] = target: T1, Steroid 17-alpha-hydroxylase/17,20 lyase; assay: Inhibition of rat testis 17-alpha-hydroxylase component of P450-17alpha
[3] = target: T1, Steroid 17-alpha-hydroxylase/17,20 lyase; assay: Inhibition of rat testis 17,20 lyase component of P450-17alpha at 10 uM
[4] = target: T1, Steroid 17-alpha-hydroxylase/17,20 lyase; assay: Inhibition of rat testis 17,20 lyase component of P450-17alpha

SMILES | inhibition at 10 µM [1] | IC50 [2] | inhibition at 10 µM [3] | IC50 [4]
c1ccc(Cn2ccnc2)cc1 | 13.5% | 154 µM | 12.6% | 50.9 µM
Fc1ccc(CCn2ccnc2)cc1 | 22.5% | 120 µM | 45.1% | –
Fc1ccc(Cn2ccnc2)cc1 | 20.5% | 96.5 µM | 51% | 11.3 µM
c1ccc(CCn2ccnc2)cc1 | 10.6% | – | 6.36% | –
CC(=O)N1CCN(c2ccc(OCC3COC(Cn4ccnc4)(c4ccc(Cl)cc4Cl)O3)cc2)CC1 (stereo not given) [KETOCONAZOLE] | 61.5% | – | 78.7% | –

More lines, in order of falling IC50 [2], values ahead:

inhibition at 10 µM [1] | IC50 [2] | inhibition at 10 µM [3] | IC50 [4] | SMILES
28.4% | 49.6 µM | 57.4% | – | Clc1ccc(CCn2ccnc2)cc1
23.4% | 30.9 µM | 40% | 6.14 µM | c1ccc(CCCn2ccnc2)cc1
37.5% | 30.7 µM | 61.5% | – | Brc1ccc(CCn2ccnc2)cc1
45.7% | 29.8 µM | 73.7% | 4.94 µM | Clc1ccc(Cn2ccnc2)cc1
40.8% | 27.8 µM | 73.2% | 1.96 µM | Fc1ccc(CCCn2ccnc2)cc1
49.3% | 16.6 µM | 76.2% | 2.85 µM | Brc1ccc(Cn2ccnc2)cc1
71% | 5.85 µM | 80.8% | 0.55 µM | Clc1ccc(CCCn2ccnc2)cc1
70.2% | 2.95 µM | 86.3% | 0.33 µM | Brc1ccc(CCCn2ccnc2)cc1
